# Key:
# [1] = system: C. albicans hyphae formation; assay: filamentation assay (hyphal morphogenesis); type: cell-based, Candida albicans; details: for inhibition of hyphal formation and induction of RFP: 12.5 μM, Spider media 16 hours, HWP1-RFP reporter; for formation of hyphae: Spider media, HWP1-RFP reporter (Example 14)
# From the text: Because the ability to interconvert between yeast and hyphal morphologies is usually correlated with pathogenicity (Finkel, 2010), we explored this observation in more detail. First, we assessed the effect of our compounds on the induction of hyphae by “Spider” media (Chauhan, 2009). For this experiment, we used a strain that contains the hyphal-specific HWP1 promoter to the Red Fluorescent Protein (RFP) open reading frame (Ganguly, 2011), which provides a molecular reporter for hyphae formation that we used in addition to visual examination of cell morphology. We initially tested each of the compounds that inhibit adhesion to polystyrene (FIG. 1B), as well as compounds #9, Q1 and Q2 (FIG. 3A), at concentration of 12.5 μM. […] Compounds Q1 and Q2 share a “Scaffold 1” backbone with compounds #4 and #9, but contain a quinoline group (FIG. 3A). Therefore, the compounds with a quinoline group can inhibit hyphae formation, but not adhesion to polystyrene or human cells (FIG. 3). […] Additionally, multiple chemical backbones are able to inhibit hyphae formation, because compound #12 has a “Scaffold 2” backbone (Table 2). To better discriminate the inhibitory compounds, we tested #4, 12 and Q1 at lower concentrations. […] Furthermore, as in the polystyrene adhesion assay (FIG. 8), compound #4 is effective at inhibiting hyphae formation at concentrations >2.5 μM.
# Overnight cultures of SC5314 or SGH584 were pregrown in uridine-supplemented SC media at 30° C. to an OD600>13 and diluted 1:10 into prewarmed Spider medium (1% Peptone (Difco), 1% Mannitol (Sigma) and 0.2% K2HPO4 (Sigma) (Chauhan, 2009) in glass tubes and grown for 16 hrs at 37° C. shaking at 200 rpm in the presence or absence of drugs as indicated. DIC and fluorescence images were acquired using a Zeiss Axiovert 200 inverted microscope equipped with a Qicam 12-bit Fast 1394 digital CCD camera (Qimaging). Image acquisition was carried out using Openlab 5 software (Improvison).
# Because the ability to interconvert between yeast and hyphal morphologies is usually correlated with pathogenicity, we explored this in more detail, examining induction of hyphae upon carbon starvation (using Spider media). We used a strain that contains the Red Fluorescent Protein (RFP) open reading frame driven by the hyphal-specific HWP1 promoter (Ganguly et al., Eukaryotic Cell 10:1448, 2011), which provides a molecular reporter for hyphae formation in addition to cell morphology. […] Therefore, the shared backbone of these compounds correlates with inhibition of multiple activities.
# Hyphal morphogenesis is induced by multiple stimuli that act via multiple signal transduction pathways and is mediated by a complex transcriptional network. […] We detected morphological difference between control and compound #4-treated cultures as early as 60 minutes in 10% serum, and 90 minutes in Spider media.
# [2] = system: C. albicans SC5314-GFP biofilm; assay: biofilm formation on silicone elastomers; type: cell-based, Candida albicans; details: for biofilm formation, visual inspection: silicone mesh
# Procedure: FIGS. 5A-5C. Effect of small molecules on biofilm formation in vitro. FIG. 5A is a series of photographs showing biofilm formation on silicone elastomers. Biofilm assay was performed with SC5314-GFP and edt1^Δ/Δ-GFP and photographed after 60 hrs. Indicated compounds were added at 50 μM. Turbid medium indicates planktonic cells unattached to silicone elastomers when biofilm formation is inhibited. Clear medium with the cell attached to the silicone elastomer indicate establishment of functional biofilm. Each treatment was done in triplicate. FIG. 5B is a graph showing quantitation of turbidity of medium. Media was removed from the wells, vortexed vigorously and the OD at 600 nm was measured in a spectrophotometer. FIG. 5C is a graph showing quantitation of dry weight of biofilm. Dry weight in mg of air-dried silicone elastomers.
# Fungal biofilm formation on implanted medical devices is a serious medical problem because these biofilms can lead to life-threatening systemic infections. An established in vitro assay to study device colonization makes use of silicone mesh as a surrogate surface (Nobile, 2006). We tested how the compounds that affected polystyrene adhesion (FIG. 1) would affect biofilm formation by visual inspection of the biofilms formed, by measuring the optical density of the supernatant liquid cultures, and by measuring their dry weights. […] Therefore, compounds #4 and Q1 were effective inhibitors of both hyphal morphogenesis (FIG. 4) and biofilm formation on silicone mesh (FIG. 5).
# We adapted a published method (Nobile, 2006, supra). Autoclaved, pre-weighed silicone mesh squares (Bentec, Catalog Number PR72034-04N) were incubated overnight at 37° C. with undiluted bovine serum. Following washing with PBS, the squares were transferred to 12-well plates and incubated with 0.5 OD/ml SC5314-GFP cells in Spider medium (with or without drugs as indicated), for 90 min at 37° C., shaking at 200 rpm. Squares were washed in PBS and transferred to new 12-well plates containing fresh Spider medium with fresh drugs and incubated for 60 hrs in a 37° C. shaker at 200 rpm. The plates were then photographed, the liquid media were collected for A600 nm measurements, and the dry weights of the bound biofilms were measured following drying of the silicone squares in a chemical hood.
# C. albicans SC5314 = assay: alamarBlue-based polystyrene adhesion assay; type: cell-based, Candida albicans
# From the text: We prioritized the candidate compounds by testing the dose-dependence of their effects. Because of the laborious washing required to remove background crystal violet dye staining, we developed adhesion assays using alternative detection reagents. Previous experiments screens have used the vital dye alamarBlue to measure Candida viability (Lafleur, J. Antimicrob Chemother. 66: 820-826, 2011; Youngsaye supra), so we tested this reagent as a way to measure cells remaining adhered after washing. […] The majority of the reordered compounds were effective at reducing Candida adhesion at 50 μM, the concentration originally tested during the screen. […] Although compounds that were still effective at 25 μM were less generally less so at 7.5 μM (FIG. 1C), many candidates still reduced adhesion by >50% at this lower concentration.
# Overnight cultures of SC5314 and edt1^−/− cells were grown and plated onto Immulon 2HB 96-well microtiter plates and treated with small molecules as described above. Following incubations, media was decanted and plates were washed twice with 100 μl/well PBS. alamarBlue (Life Technologies) was resuspended to a final concentration of 5% in RPMI buffered with 0.165 M MOPS and then 100 μl was added to each well, followed by further incubation for 2 hours at 37° C. Fluorescence signals at 555Ex/585Em were read using a SpectraMax M5 Plate reader (Molecular Devices).
# [3] = system: C. elegans infected with C. albicans; assay: C. elegans pathogenesis assay; type: in vivo, Caenorhabditis elegans; details: 12.5 μM
# Procedure: We therefore tested whether compound #4 can alter fungal infections in two in vivo settings. First, we performed pathogenesis assays in which nematodes (Caenorhabditis elegans) are infected with C. albicans, resulting in killing of the nematode host (Jain, 2009; Okoli, 2009). We used this assay to test whether compound #4 might have a protective effect, exposing C. elegans to Candida albicans and either DMSO vehicle, the commonly used antifungal drug fluconazole at 12.5 μM, or compound #4 at the same concentration. […] Therefore, consistent with its in vitro activities, compound #4 functions as an antifungal agent in this model infection system.
# Three worms in the L3/L4 stage were transferred to each of two NGM agar plates containing E. coli OP50 and grown at 20° C. for four days. On the day of the experiment, worms were washed off the plates with M9 buffer and centrifuged at 900×g for 2 min. The supernatant was removed, and the worms were then resuspended in a bleach solution (1:4 dilution of commercial bleach (5.25%) diluted in 0.25 M sodium hydroxide). The worm suspension was mixed gently by inversion for 3 min, and centrifuged for 2 min at 2,000×g. The pellet containing the eggs was washed with M9 buffer and centrifuged at 2,000×g for 2 min and then resuspended in 500 μl M9 buffer. […]
Compound,inhibition of hyphal formation and induction of RFP [1],"biofilm formation, visual inspection ([2]; 50 μM, 60 hrs)",formation of hyphae [1],other results
O=C(c1csc2ccccc12)N1CCN(c2ccc(Cl)c(Cl)c2)CC1 [Compound 3],did not block hyphal formation as efficiently,,,
Cc1ccc(C(=O)N2CCN(c3ccc(Cl)cc3)CC2)cc1C [Compound 7],did not block hyphal formation as efficiently,most effectively kept the cells dispersed in the media rather than on the mesh,,
Cc1ccc(N2CCN(C(=O)c3ccccc3)CC2)cc1Cl [Compound 8],did not block hyphal formation as efficiently,,,
COc1ccc(C(=O)Nc2cccc(Cl)c2)cc1Br [Compound 12],most potently inhibited hyphal formation and induction of RFP,most effectively kept the cells dispersed in the media rather than on the mesh,,"hyphae formation induced by Spider media ([1]; 5 μM): A few hyphae were observed; hyphae formation induced by Spider media ([1]; 10 μM): completely blocked the hyphae formation; synergy on adhesion upon combining compound #4 and compound #12 (C. albicans SC5314; #4 1.5 μM with #12 4 and 6 μM): did not further reduce adhesion; effect on adhesion of compound alone (C. albicans SC5314; compound #4 1.5 μM, compound #12 4 and 6 μM): partial effects"
CCOc1ccc(NC(=O)c2c(NC(=O)CNCCc3ccccc3)sc3c2CCC3)cc1 [Compound 14],,,blocked formation of hyphae,
Cc1cc(C)n(CC(O)Cn2c3ccc(Cl)cc3c3cc(Cl)ccc32)c(=O)n1 (centres unmarked) [Compound 21],,most effectively kept the cells dispersed in the media rather than on the mesh,,"media density (OD 600 nm) ([2]; 50 μM, 60 hrs): more modest than for the other compounds tested"
O=C(NCCC12CC3CC(CC(C3)C1)C2)c1ccc(S(=O)(=O)N2CCOCC2)cc1 [Compound 26],,,blocked formation of hyphae,
COc1ccc(N2CCN(C(=O)CCCN3C(=O)c4cccc5cccc(c45)C3=O)CC2)cc1 [Compound 27],,,blocked formation of hyphae,biofilm formation on silicone mesh ([2]; Example 14): effective inhibitors of both hyphal morphogenesis and biofilm formation on silicone mesh
"OC(Cn1cncn1)(Cn1cncn1)c1ccc(F)cc1F [fluconazole, reference compound]",,,,lifespan of infected worms [3]: increased the lifespan of the infected worms
